The term IC50 denotes the concentration that gives 50% inhibition.

Structures are written as SMILES.

The values that follow come from patent US12649753B2, “Inositol derivative and use thereof” (SHANGHAI SENHUI MEDICINE CO., LTD., priority 2020, dated 2026).

The test can be described thus: Spectrophotometric pharmacodynamics (PD) assay: inhibition of hydroxyapatite generation in human plasma. It counts as biochemical. Particulars: human plasma (EDTA-K2), phosphate 1.5 mM and calcium 12.5 mM final, 25° C., slope of absorbance at 550 nm between 6 min and 24 min; read-out: IC50 (Mean ± SD). The procedure: The inhibition effect of the test compounds on the generation of the human plasma hydroxyapatite (HAP) was determined by the spectrophotometric pharmacodynamics (PD) assay.
1.1 Preparation of Reagents • 1) Human plasma anticoagulated with EDTA-K2. • 2) Mixed solution: disodium hydrogen phosphate 5 mM, calcium chloride 41.67 mM, adjusted to pH 7.4 and filtered through a 0.22 μm filter. • 3) Sodium chloride solution: 0.15 M, adjusted to pH 7.4 and filtered through a 0.22 μm filter.
2.1 Test Procedures • 1) The test compounds were prepared using a 0.15 M sodium chloride solution. • 2) The human plasma sample was reprocessed. A sufficient amount of plasma was taken and centrifuged at room temperature at 10000 g for 30 min for later use. • 3) The plasma was added to a 96 well plate at 75 μL/well. • 4) The candidate drug was added at 5 μL/well. • 5) The mixed solution of disodium hydrogen phosphate and calcium chloride was added at […], with expected final concentrations of 1.5 mM and 12.5 mM, respectively. • 6) The plate was incubated at room temperature (25° C.) on a shaker (750 rpm), and the absorbance at a wavelength of 550 nm was measured every 3 min. • 7) The final reading was set as the slope of the change in absorbance between 6 min and 24 min.

For `COCCOCCO[C@@H]1C(OP(=O)(O)O)[C@H](OCCOCCOC)[C@@H](OP(=O)(O)O)C(OP(=O)(O)O)[C@H]1OP(=O)(O)O` (stereo partly shown) [INS 3001], the IC50 stood at 1860 ± 142 nM.
